Data from the supplement of paper PMC10883282.
Counter-ions that a name gives are not always drawn. ± gives the standard deviation of the averaged measurements.

Test system: G401
Assay: relative viability vs DMSO control (72 h) (fraction); higher = more viable cells
Outline: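 A 5 µM positive control and 0.1% DMSO vehicle ran alongside sarcoma cell lines seeded in 384-well plates to reach 80–90% confluence. Serially diluted compound, 2.5 µl from source plates of 10 mM to 0.0002 mM, was added after 24 h, and the plates were held 72 h at 37 °C, 5% CO2. Relative viability was worked out from ATPLite readings as percent growth averaged over up to triplicate wells. The values were rescaled so that 1 is full and 0 is none.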

SMILES: CC[C@H](Nc1ncnc2[nH]cnc12)c1nc2cccc(F)c2c(=O)n1-c1ccccc1 [Idelalisib]
- relative viability (0.00017 µM): 1.06 ± 0.034
- relative viability (0.00051 µM): 1.07 ± 0.036
- relative viability (0.00152 µM): 1.06 ± 0.051
- relative viability (0.00457 µM): 1.05 ± 0.017
- relative viability (0.01372 µM): 1.02 ± 0.032
- relative viability (0.04115 µM): 0.998 ± 0.036
- relative viability (0.1235 µM): 0.987 ± 0.042
- relative viability (0.3704 µM): 0.965 ± 0.021
- relative viability (1.111 µM): 0.946 ± 0.013
- relative viability (3.333 µM): 0.877 ± 0.045
- relative viability (10 µM): 0.795 ± 0.023

SMILES: CC(C)(C)c1cc(NC(=O)Nc2ccc(-c3cn4c(n3)sc3cc(OCCN5CCOCC5)ccc34)cc2)no1 [Quizartinib]
- relative viability (0.00017 µM): 1.02 ± 0.04
- relative viability (0.00051 µM): 1.01 ± 0.017
- relative viability (0.00152 µM): 1.05 ± 0.048
- relative viability (0.00457 µM): 1.06 ± 0.026
- relative viability (0.01372 µM): 1.04 ± 0.039
- relative viability (0.04115 µM): 0.984 ± 0.052
- relative viability (0.1235 µM): 1 ± 0.013
- relative viability (0.3704 µM): 0.926 ± 0.011
- relative viability (1.111 µM): 0.971 ± 0.021
- relative viability (3.333 µM): 0.945 ± 0.051
- relative viability (10 µM): 0.87 ± 0.023

SMILES: CNC(=O)c1cc(Oc2ccc(NC(=O)Nc3ccc(Cl)c(C(F)(F)F)c3)c(F)c2)ccn1 [Regorafenib]
- relative viability (0.00017 µM): 1.05 ± 0.058
- relative viability (0.00051 µM): 1.06 ± 0.077
- relative viability (0.00152 µM): 1.09 ± 0.071
- relative viability (0.00457 µM): 1.07 ± 0.025
- relative viability (0.01372 µM): 1.07 ± 0.032
- relative viability (0.04115 µM): 1.07 ± 0.071
- relative viability (0.1235 µM): 1.02 ± 0.058
- relative viability (0.3704 µM): 0.888 ± 0.088
- relative viability (1.111 µM): 0.821 ± 0.056
- relative viability (3.333 µM): 0.609 ± 0.062
- relative viability (10 µM): 0.431 ± 0.029

SMILES: CNC(=O)c1ccc(-c2cnc3ncc(Cc4ccc5ncccc5c4)n3n2)cc1F [Capmatinib]
- relative viability (0.00017 µM): 1.01 ± 0.023
- relative viability (0.00051 µM): 0.988 ± 0.024
- relative viability (0.00152 µM): 1.03 ± 0.027
- relative viability (0.00457 µM): 1.04 ± 0.019
- relative viability (0.01372 µM): 0.977 ± 0.03
- relative viability (0.04115 µM): 1.01 ± 0.058
- relative viability (0.1235 µM): 0.9706 ± 0.0066
- relative viability (0.3704 µM): 1.02 ± 0.0027
- relative viability (1.111 µM): 0.981 ± 0.01
- relative viability (3.333 µM): 0.929 ± 0.012
- relative viability (10 µM): 0.877 ± 0.053

SMILES: COc1cccc2c1C(=O)c1c(O)c3c(c(O)c1C2=O)C[C@@](O)(C(=O)CO)C[C@@H]3O[C@H]1C[C@H](N)[C@H](O)[C@H](C)O1 [Doxorubicin Hydrochloride]
- relative viability (0.00017 µM): 1.03 ± 0.011
- relative viability (0.00051 µM): 1.02 ± 0.018
- relative viability (0.00152 µM): 1 ± 0.041
- relative viability (0.00457 µM): 0.937 ± 0.021
- relative viability (0.01372 µM): 0.8493 ± 0.0066
- relative viability (0.04115 µM): 0.681 ± 0.019
- relative viability (0.1235 µM): 0.476 ± 0.041
- relative viability (0.3704 µM): 0.079 ± 0.017
- relative viability (1.111 µM): 0.0407 ± 0.0027
- relative viability (3.333 µM): 0.096 ± 0.0082
- relative viability (10 µM): 0.101 ± 0.0054

SMILES: CO[C@H]1C[C@@H]2CC[C@@H](C)[C@@](O)(O2)C(=O)C(=O)N2CCCC[C@H]2C(=O)O[C@H]([C@H](C)C[C@@H]2CC[C@@H](OP(C)(C)=O)[C@H](OC)C2)CC(=O)[C@H](C)/C=C(\C)[C@@H](O)[C@@H](OC)C(=O)[C@H](C)C[C@H](C)/C=C/C=C/C=C/1C [Ridaforolimus]
- relative viability (0.00017 µM): 0.919 ± 0.043
- relative viability (0.00051 µM): 0.885 ± 0.03
- relative viability (0.00152 µM): 0.841 ± 0.071
- relative viability (0.00457 µM): 0.793 ± 0.068
- relative viability (0.01372 µM): 0.751 ± 0.07
- relative viability (0.04115 µM): 0.739 ± 0.056
- relative viability (0.1235 µM): 0.744 ± 0.027
- relative viability (0.3704 µM): 0.725 ± 0.019
- relative viability (1.111 µM): 0.712 ± 0.012
- relative viability (3.333 µM): 0.681 ± 0.017
- relative viability (10 µM): 0.645 ± 0.022

SMILES: Cc1cc(C)c(/C=C2\C(=O)Nc3ccccc32)[nH]1 [Semaxanib]
- relative viability (0.00017 µM): 0.957 ± 0.044
- relative viability (0.00051 µM): 0.981 ± 0.031
- relative viability (0.00152 µM): 0.957 ± 0.043
- relative viability (0.00457 µM): 0.976 ± 0.037
- relative viability (0.01372 µM): 0.964 ± 0.036
- relative viability (0.04115 µM): 0.948 ± 0.019
- relative viability (0.1235 µM): 0.9755 ± 0.0068
- relative viability (0.3704 µM): 0.9895 ± 0.0091
- relative viability (1.111 µM): 0.932 ± 0.046
- relative viability (3.333 µM): 0.904 ± 0.05
- relative viability (10 µM): 0.813 ± 0.067

SMILES: CN1CCC(COc2cnc(-c3cccc(Cn4nc(-c5cccc(C#N)c5)ccc4=O)c3)nc2)CC1 [Tepotinib]
- relative viability (0.00017 µM): 1.02 ± 0.014
- relative viability (0.00051 µM): 1.02 ± 0.015
- relative viability (0.00152 µM): 1.012 ± 0.01
- relative viability (0.00457 µM): 1.003 ± 0.0083
- relative viability (0.01372 µM): 1.04 ± 0.018
- relative viability (0.04115 µM): 1.04 ± 0.057
- relative viability (0.1235 µM): 1.02 ± 0.013
- relative viability (0.3704 µM): 1.01 ± 0.029
- relative viability (1.111 µM): 1 ± 0.015
- relative viability (3.333 µM): 0.9287 ± 0.0054
- relative viability (10 µM): 0.787 ± 0.02

SMILES: COc1cc2c(Oc3ccc4[nH]c(C)cc4c3F)ncnc2cc1OCCCN1CCCC1 [Cediranib]
- relative viability (0.00017 µM): 0.97 ± 0.055
- relative viability (0.00051 µM): 1.03 ± 0.015
- relative viability (0.00152 µM): 0.993 ± 0.031
- relative viability (0.00457 µM): 0.981 ± 0.059
- relative viability (0.01372 µM): 0.995 ± 0.029
- relative viability (0.04115 µM): 1.01 ± 0.024
- relative viability (0.1235 µM): 0.95 ± 0.024
- relative viability (0.3704 µM): 0.828 ± 0.013
- relative viability (1.111 µM): 0.47 ± 0.019
- relative viability (3.333 µM): 0.273 ± 0.02
- relative viability (10 µM): 0.00627 ± 0.0033

SMILES: C[C@@H](c1ccc2nccn2c1)n1nnc2ncc(-c3cnn(C)c3)nc21 [Volitinib]
- relative viability (0.00017 µM): 1.01 ± 0.029
- relative viability (0.00051 µM): 1.01 ± 0.042
- relative viability (0.00152 µM): 1.03 ± 0.035
- relative viability (0.00457 µM): 1.04 ± 0.044
- relative viability (0.01372 µM): 1 ± 0.018
- relative viability (0.04115 µM): 1.03 ± 0.019
- relative viability (0.1235 µM): 1.03 ± 0.015
- relative viability (0.3704 µM): 1.04 ± 0.046
- relative viability (1.111 µM): 1.03 ± 0.049
- relative viability (3.333 µM): 0.987 ± 0.026
- relative viability (10 µM): 0.955 ± 0.025

SMILES: CC1(C)CNc2cc(NC(=O)c3cccnc3NCc3ccncc3)ccc21 [Motesanib]
- relative viability (0.00017 µM): 0.984 ± 0.047
- relative viability (0.00051 µM): 0.982 ± 0.042
- relative viability (0.00152 µM): 0.973 ± 0.019
- relative viability (0.00457 µM): 0.955 ± 0.03
- relative viability (0.01372 µM): 0.979 ± 0.015
- relative viability (0.04115 µM): 0.962 ± 0.022
- relative viability (0.1235 µM): 0.949 ± 0.022
- relative viability (0.3704 µM): 0.934 ± 0.036
- relative viability (1.111 µM): 0.9058 ± 0.0034
- relative viability (3.333 µM): 0.84 ± 0.034
- relative viability (10 µM): 0.684 ± 0.02

SMILES: N#CC[C@H](C1CCCC1)n1cc(-c2ncnc3[nH]ccc23)cn1 [Ruxolitinib]
- relative viability (0.00017 µM): 0.971 ± 0.051
- relative viability (0.00051 µM): 1.01 ± 0.037
- relative viability (0.00152 µM): 1.01 ± 0.034
- relative viability (0.00457 µM): 1 ± 0.026
- relative viability (0.01372 µM): 1.02 ± 0.02
- relative viability (0.04115 µM): 0.969 ± 0.039
- relative viability (0.1235 µM): 0.99 ± 0.024
- relative viability (0.3704 µM): 0.935 ± 0.047
- relative viability (1.111 µM): 0.942 ± 0.035
- relative viability (3.333 µM): 0.936 ± 0.025
- relative viability (10 µM): 0.824 ± 0.034

SMILES: Cc1nc(NC(=O)N2CCC[C@H]2C(N)=O)sc1-c1ccnc(C(C)(C)C(F)(F)F)c1 [Alpelisib]
- relative viability (0.00017 µM): 1 ± 0.066
- relative viability (0.00051 µM): 1.01 ± 0.04
- relative viability (0.00152 µM): 0.993 ± 0.041
- relative viability (0.00457 µM): 0.946 ± 0.075
- relative viability (0.01372 µM): 0.939 ± 0.017
- relative viability (0.04115 µM): 0.906 ± 0.079
- relative viability (0.1235 µM): 0.864 ± 0.021
- relative viability (0.3704 µM): 0.777 ± 0.036
- relative viability (1.111 µM): 0.697 ± 0.07
- relative viability (3.333 µM): 0.577 ± 0.053
- relative viability (10 µM): 0.504 ± 0.052

SMILES: CN1CCN(c2ccc3nc(-c4c(N)c5c(F)cccc5[nH]c4=O)[nH]c3c2)CC1 [Dovitinib]
- relative viability (0.00017 µM): 1.02 ± 0.045
- relative viability (0.00051 µM): 1.014 ± 0.0059
- relative viability (0.00152 µM): 1.04 ± 0.021
- relative viability (0.00457 µM): 1.018 ± 0.0017
- relative viability (0.01372 µM): 1 ± 0.023
- relative viability (0.04115 µM): 1.01 ± 0.051
- relative viability (0.1235 µM): 0.966 ± 0.034
- relative viability (0.3704 µM): 0.92 ± 0.019
- relative viability (1.111 µM): 0.632 ± 0.069
- relative viability (3.333 µM): 0.256 ± 0.013
- relative viability (10 µM): 0.13 ± 0.0053
